Measured values from patent publication US12668599B2, “Heterobifunctional compounds and methods of treating disease” (Halda Therapeutics OpCo, Inc., priority 2023, dated 2026).

Legend:
[1] = tested on: T-Rex 293 cell line SC3 cells having increased expression of androgen receptor protein due to exposure to doxycycline; test: Cellular growth inhibition, T-Rex 293 SC3 cells with doxycycline-induced androgen receptor (CellTiter-Glo 2.0, 72 hours); assay type: cell-based; settings: for GI50: T-Rex 293 SC3 cells with 10 ng/ml doxycycline (increased androgen receptor expression), 72 hours, CellTiter-Glo 2.0
[2] = tested on: T-Rex 293 cell line SC3 cells lacking increased expression of androgen receptor protein; test: Cellular growth inhibition, T-Rex 293 SC3 cells without doxycycline (CellTiter-Glo 2.0, 72 hours); assay type: cell-based; settings: T-Rex 293 SC3 cells not exposed to doxycycline (no increased androgen receptor expression)
VCaP cells = test: Cellular growth inhibition assay for VCaP cells (CellTiter-Glo 2.0, 72 hours); assay type: cell-based, human; settings: for GI50: CellTiter-Glo 2.0

Compound	GI50 (VCaP cells; Homo sapiens, VCaP, 72 h)	GI50 (VCaP cells; 72 hours)	Ratio of GI50's (VCaP cells; GI50 of the top compound in the pair divided by GI50 of the lower compound)	GI50 [1]	GI50 ([2]; 72 h)	GI50 [2]	Ratio of GI50's ([1]; GI50 of the top compound in the pair divided by GI50 of the lower compound, T-Rex 293 SC3 cells with doxycycline-induced androgen receptor)
COc1cc(O[C@H]2CC[C@H](NC(=O)c3ccc(N4CC56CCCCC5(CN(c5ccc(C7=N[C@@H](C)c8nnc(C)n8-c8sc(C)c(C)c87)cc5)C6)C4)nn3)CC2)ccc1C#N (some centres unmarked) [Compound I-78]	< 500 nM	–	–	< 500 nM	< 500 nM	–	–
COc1cc(O[C@H]2CC[C@H](NC(=O)c3ccc(N4CCC5(CCC(c6ccc(C7=N[C@@H](C)c8nnc(C)n8-c8sc(C)c(C)c87)cc6Cl)CC5)C4)nn3)CC2)ccc1C#N (some centres unmarked) [Compound I-84]	< 500 nM	–	–	< 500 nM	–	< 500 nM	–
COc1cc(O[C@H]2CC[C@H](NC(=O)c3ccc(N4C[C@]5(F)CN(c6ccc(C7=N[C@@H](Cc8ncco8)c8nnc(C)n8-c8sc(C)c(C)c87)cc6)C[C@]5(F)C4)nn3)CC2)ccc1C#N [Compound I-119]	< 500 nM	–	–	< 500 nM	< 500 nM	–	–
COc1cc(O[C@H]2C(C)(C)[C@H](NC(=O)c3cnc(N4CCC5(CC4)CC(Oc4ccc(C6=N[C@H](Cc7ncco7)c7nnc(C)n7-c7sc(C)c(C)c76)cc4)C5)nc3)C2(C)C)ccc1C#N [II-14]	> 3000 nM	–	–	< 500 nM	> 3000 nM	–	–
COc1cc(O[C@H]2CC[C@H](NC(=O)c3ccc(N4CCC5(CCC(c6ccc(C7=N[C@@H](C)c8nnc(C)n8-c8sc(C)c(C)c87)nc6)CC5)C4)nn3)CC2)ccc1C#N (some centres unmarked) [Compound I-88]	< 500 nM	–	–	< 500 nM	< 500 nM	–	–
COc1cc(O[C@H]2CC[C@H](NC(=O)c3ccc(N4CCC5(CCC(c6ccc(C7=N[C@@H](C)c8nnc(C)n8-c8sc(C)c(C)c87)cc6C(C)C)CC5)C4)nn3)CC2)ccc1C#N (some centres unmarked) [Compound I-121]	< 500 nM	–	–	< 500 nM	> 3000 nM	–	–
Cc1sc2c(c1C)C(c1ccc(C#CC3CC4(C3)CN(c3ccc(C(=O)N[C@H]5CC[C@H](Oc6ccc(C#N)c(OC(F)(F)F)c6)CC5)nn3)C4)cc1)=NC1(CC1)c1nnc(C)n1-2 [Compound I-7, N-[4-[4-cyano-3-(trifluoromethoxy)phenoxy]cyclohexyl]-6-[6-[2-[4-(4,5,13-trimethylspiro[3-thia-1,8,11,12-tetrazatricyclo[8.3.0.0^2,6]trideca-2 (6),4,7,10,12-pentaene-9,1′-cyclopropane]-7-yl)phenyl]ethynyl]-2-azaspiro[3.3]heptan-2-yl]pyridazine-3-carboxamide]	< 500 nM	–	–	< 500 nM	< 500 nM	–	–
COc1cc(O[C@H]2CC[C@H](NC(=O)c3ccc(N4C[C@@H]5CN(c6ccc(C7=N[C@@H](C)c8nnc(C)n8-c8sc(C)c(C)c87)cc6F)C[C@@H]5C4)nn3)CC2)ccc1C#N [Compound I-76]	< 500 nM	–	–	< 500 nM	< 500 nM	–	–
CC[C@@H]1N=C(c2ccc(C3CCC4(CC3)CCN(c3ccc(C(=O)NC5CCC(Oc6ccc(C#N)c(OC(F)(F)F)c6)CC5)nn3)C4)cc2)c2c(sc(C)c2C)-n2c(C)nnc21 (stereo partly drawn) [Compound I-13, N-((1r,4r)-4-(4-cyano-3-(trifluoromethoxy)phenoxy)cyclohexyl)-6-(8-(4-((S)-6-ethyl-2,3,9-trimethyl-6H-thieno[3,2-f][1,2,4]triazolo[4,3-a][1,4]diazepin-4-yl)phenyl)-2-azaspiro[4.5]decan-2-yl) pyridazine-3-carboxamide]	–	< 500 nM	–	< 500 nM	–	< 500 nM	–
COc1cc(O[C@H]2CC[C@H](NC(=O)c3ccc(N4CC5(CC(C#Cc6ccc(C7=N[C@@H](Cc8ncco8)c8nnc(C)n8-c8sc(C)c(C)c87)cc6)C5)C4)nn3)CC2)ccc1C#N [Compound I-124, N-[(1r,4r)-4-(4-cyano-3-methoxy-phenoxy)cyclohexyl]-6-[6-[2-[4-[(9S)-4,5,13-trimethyl-9-(oxazol-2-ylmethyl)-3-thia-1,8,11,12-tetrazatricyclo[8.3.0.0^2,6]trideca-2 (6),4,7,10,12-pentaen-7-yl]phenyl]ethynyl]-2-azaspiro[3.3]heptan-2-yl]pyridazine-3-carboxamide]	< 500 nM	–	1	< 500 nM	< 500 nM	–	1
COc1cc(O[C@H]2CC[C@H](NC(=O)c3ccc(N4CCC5(CCC(c6ccc(C7=N[C@@H](C)c8nnc(C)n8-c8sc(C)c(C)c87)cc6C(C)C)CC5)C4)nn3)CC2)ccc1C#N (some centres unmarked) [Compound I-122]	–	500 to 1500 nM	–	< 500 nM	–	1500 to 3000 nM	–
COC[C@@H]1N=C(c2ccc(C#CC3CC4(C3)CN(c3ccc(C(=O)N[C@H]5CC[C@H](Oc6ccc(C#N)c(OC(F)(F)F)c6)CC5)nn3)C4)cc2)c2c(sc(C)c2C)-n2c(C)nnc21 [Compound I-8, N-[4-[4-cyano-3-(trifluoromethoxy)phenoxy]cyclohexyl]-6-[6-[2-[4-[(9R)-9-(methoxymethyl)-4,5,13-trimethyl-3-thia-1,8,11,12-tetrazatricyclo[8.3.0.0^2,6]trideca-2 (6),4,7,10,12-pentaen-7-yl]phenyl]ethynyl]-2-azaspiro[3.3]heptan-2-yl]pyridazine-3-carboxamide]	< 500 nM	–	–	< 500 nM	< 500 nM	–	–
COC[C@@H]1N=C(c2ccc(C3CCC4(CC3)CCN(c3ccc(C(=O)NC5CCC(Oc6ccc(C#N)c(OC)c6)CC5)nn3)C4)cc2)c2c(sc(C)c2C)-n2c(C)nnc21 (stereo partly drawn) [Compound I-27, N-[4-(4-cyano-3-methoxy-phenoxy)cyclohexyl]-6-[8-[4-[(9R)-9-(methoxymethyl)-4,5,13-trimethyl-3-thia-1,8,11,12-tetrazatricyclo[8.3.0.0^2,6]trideca-2 (6),4,7,10,12-pentaen-7-yl]phenyl]-2-azaspiro[4.5]decan-2-yl]pyridazine-3-carboxamide]	< 500 nM	–	–	< 500 nM	< 500 nM	–	–
COc1cc(O[C@H]2CC[C@H](NC(=O)c3ccc(N4CCC5(CCN(c6ccc(C7=NC(Cc8ncco8)c8nnc(C)n8-c8sc(C)c(C)c87)cc6C(F)(F)F)CC5)C4)nn3)CC2)ccc1C#N (some centres unmarked) [Compound I-126]	–	> 3000 nM	–	< 500 nM	–	> 3000 nM	–

Continued, in another order:

GI50 (VCaP cells; Homo sapiens, VCaP, 72 h)	GI50 (VCaP cells; 72 hours)	Ratio of GI50's (VCaP cells; GI50 of the top compound in the pair divided by GI50 of the lower compound)	Compound	GI50 [1]	GI50 ([2]; 72 h)	GI50 [2]	Ratio of GI50's ([1]; GI50 of the top compound in the pair divided by GI50 of the lower compound, T-Rex 293 SC3 cells with doxycycline-induced androgen receptor)
< 500 nM	–	–	COc1cc(O[C@H]2CC[C@H](NC(=O)c3ccc(N4CCC5(CCN(c6ccc(C7=N[C@@H](C)c8nnc(C)n8-c8sc(C)c(C)c87)cc6F)C5)C4)nn3)CC2)ccc1C#N (stereo partly drawn) [Compound I-79, N-[4-(4-cyano-3-methoxy-phenoxy)cyclohexyl]-6-[7-[2-fluoro-4-[(9S)-4,5,9,13-tetramethyl-3-thia-1,8,11,12-tetrazatricyclo[8.3.0.0^2,6]trideca-2 (6),4,7,10,12-pentaen-7-yl]phenyl]-2,7-diazaspiro[4.4]nonan-2-yl]pyridazine-3-carboxamide]	< 500 nM	< 500 nM	–	–
500 to 1500 nM	–	–	COc1cc(O[C@H]2CC[C@H](NC(=O)c3ccc(N4CCC5(CCN(c6ccc(C7=N[C@@H](C)c8nnc(C)n8-c8sc(C)c(C)c87)cc6C(C)C)CC5)C4)nn3)CC2)ccc1C#N [Compound I-105, N-[4-(4-cyano-3-methoxy-phenoxy)cyclohexyl]-6-[8-[2-isopropyl-4-[(9S)-4,5,9,13-tetramethyl-3-thia1,8,11,12-tetrazatricyclo[8.3.0.0^2,6]trideca-2 (6),4,7,10,12-pentaen-7-yl]phenyl]-2,8-diazaspiro[4.5]decan-2-yl]pyridazine-3-carboxamide]	< 500 nM	> 3000 nM	–	–
< 500 nM	–	–	COc1cc(O[C@H]2CC[C@H](NC(=O)c3ccc(N4CCCC5(CCC(c6ccc(C7=N[C@@H](C)c8nnc(C)n8-c8sc(C)c(C)c87)cc6)CC5)C4)nn3)CC2)ccc1C#N (some centres unmarked) [Compound I-24]	< 500 nM	1500 to 3000 nM	–	–
< 500 nM	–	–	COc1cc(O[C@H]2CC[C@H](NC(=O)c3ccc(N4CCC5(CCC(Oc6ccc(C7=N[C@@H](C)c8nnc(C)n8-c8sc(C)c(C)c87)cc6)C5)C4)nn3)CC2)ccc1C#N (single isomer, unassigned) [Compound I-49]	< 500 nM	< 500 nM	–	–
< 500 nM	–	–	COc1cc(O[C@H]2CC[C@H](NC(=O)c3ccc(N4CCC5(CCN(c6ccc(C7=N[C@@H](C)c8nnc(C)n8-c8sc(C)c(C)c87)cc6)CC5)C4)nn3)CC2)ccc1C#N [Compound I-70]	< 500 nM	< 500 nM	–	–
–	500 to 1500 nM	–	COc1cc(O[C@H]2CC[C@H](NC(=O)c3ccc(N4CCC5(CCC(c6ccc(C7=N[C@@H](C)c8nnc(C)n8-c8sc(C)c(C)c87)cc6)C5)CC4)nn3)CC2)ccc1C#N (some centres unmarked) [Compound I-21]	< 500 nM	–	< 500 nM	–
< 500 nM	–	–	COc1cc(O[C@H]2CC[C@H](NC(=O)c3cnc(N4CCC5(CCN(c6ccc(C7=N[C@@H](C)c8nnc(C)n8-c8sc(C)c(C)c87)cc6)CC5)C4)cn3)CC2)ccc1C#N [Compound I-39, N-((1r,4r)-4-(4-cyano-3-methoxyphenoxy)cyclohexyl)-5-(8-(4-((S)-2,3,6,9-tetramethyl-6H-thieno[3,2-f][1,2,4]triazolo[4,3-a][1,4]diazepin-4-yl)phenyl)-2,8-diazaspiro[4.5]decan-2-yl) pyrazine-2-carboxamide]	< 500 nM	< 500 nM	–	–
< 500 nM	–	–	COc1cc(O[C@H]2CC[C@H](NC(=O)c3ccc(N4CCC5(CCN(c6ccc(C7=N[C@@H](C)c8nnc(C)n8-c8sc(C)c(C)c87)cc6Cl)CC5)C4)nn3)CC2)ccc1C#N [Compound I-73, 6-[8-[2-chloro-4-[(9S)-4,5,9,13-tetramethyl-3-thia-1,8,11,12-tetrazatricyclo[8.3.0.0^2,6]trideca-2 (6),4,7,10,12-pentaen-7-yl]phenyl]-2,8-diazaspiro[4.5]decan-2-yl]-N-[4-(4-cyano-3-methoxy-phenoxy)cyclohexyl]pyridazine-3-carboxamide]	< 500 nM	< 500 nM	–	–
